For this assay, the system named is RF-48 cells. The assay is described as follows: ghrelin release from RF-48 cells measured by enzyme immunoassay. It is filed as cell-based, human. To be noted: 1 hour incubation with test compound, supernatant measured with EIA kit, compared with control and control+vehicle (FIG. 1). As for the experimental part: These test compounds were made as 100× stock solutions by dissolving them in pure ethanol, as a vehicle. The test compounds were then diluted 1/100 in the Leibovitz L-15 medium containing 0.5% foetal bovine serum (FBS).
Since the effect caused by these test compounds on ghrelin release by a RF-48 cell line was tested, RF-48 cells were grown during incubation at 37° C. in Leibovitz's L15 medium with 2 mM L-glutamine and containing 10% (vol/vol) FBS in the absence of CO2.
After cell confluence was obtained, the cells were plated in 24-well cultures plates (1×10^5 cells/well). Several wells were subsequently exposed to one of the test compounds as prepared above. For each type and concentration of test compound tested, a series of three tests was carried out.
After 1 hour of incubation of the thus-filled wells containing both the cells and the test compound at the same conditions as those applied during growing of the RF-48 cells, a sample was taken from each well to measure ghrelin release.
Each sample was centrifuged at 3000 rpm to remove the cells from the sample and the supernatant (containing the ghrelin formed as well as the medium and the test compound) was transferred to a separate tube. The ghrelin release was measured using a commercial enzyme immunoassay kit (from Phoenix Pharmaceuticals, Belmont, Calif., USA). […]

The values below come from patent US20060252048A1, “Method for testing ghrelin release” (priority 2003, published 2006).

Where no end group is shown, it is not given here. The star is where a group is joined. SO3H = O=S(=O)(O)*

Consider “Tyr(SO3H]27)Cholecystokinin fragment 26-33 Amide (DY(SO3H)MGWMDF-NH2; UniProt P06307 96-103, looked up) [CCK]”, for which the ghrelin release result is “stimulate the release of ghrelin”.
